Measurements published in ChEMBL document CHEMBL1133139, “Stereochemistry of halopyridyl and thiazolyl thiourea compounds is a major determinant of their potency as nonnucleoside inhibitors of HIV-1 reverse transcriptase” (Bioorg Med Chem Lett, 2000).

Columns and labels:
[1] = Inhibit the replication of the HIV-1 strain […] in human peripheral blood mononuclear cell; type: functional
[2] = molecular target: T1, Human immunodeficiency virus type 1 reverse transcriptase (Human immunodeficiency virus 1, UniProt Q72547); assay: Compound was evaluated for its inhibitory activity against recombinant HIV-1 Reverse transcriptase using cell free RT inhibition assay
[3] = molecular target: T1, Human immunodeficiency virus type 1 reverse transcriptase; assay: Binding affinity against HIV reverse transcriptase (Estimated Ki)
[4] = test system: Human immunodeficiency virus 1; assay: Inhibitory activity against NNI-resistant HIV-1 strain A17 with Y181C mutation; type: functional, organism-based
[5] = test system: Human immunodeficiency virus 1; assay: Inhibitory activity against NNI-resistant HIV-1 strain A17 with Y181C,K103N mutation; type: functional, organism-based
[6] = test system: H9; assay: Inhibitory activity against multidrug resistant HIV-1 strain RT-MDR; type: functional, cell-based; settings: Homo sapiens
[7] = Compound was evaluated for its ability to inhibit the replication of the HIV-1 strain […] in human peripheral blood mononuclear cells; type: functional

| SMILES | IC50 [1] | IC50 [2] | Ki [3] | IC50 [4] | IC50 [5] | IC50 [6] | IC50 [7] |
| --- | --- | --- | --- | --- | --- | --- | --- |
| C[C@H](/N=C(\S)Nc1ccc(Br)cn1)C1CCCCC1 | > 1000 nM | > 100000 nM | > 100000 nM | – | – | – | – |
| C[C@@H](NC(=S)Nc1ccc(Br)cn1)c1ccccc1 | 10 nM | 1600 nM | – | 10 nM | 2700 nM | 5 nM | – |
| C[C@H](/N=C(\S)Nc1ccc(Br)cn1)c1ccccc1 | > 1000 nM | > 100000 nM | – | – | – | – | – |
| C[C@@H](/N=C(\S)Nc1ccccn1)C1CCCCC1 | > 1000 nM | > 100000 nM | > 100000 nM | – | – | – | – |
| Fc1ccccc1CCNC(=S)Nc1ccc(Br)cn1 | < 1 nM | – | 600 nM | 200 nM | 41000 nM | 5 nM | – |
| C[C@@H](NC(=S)Nc1ccc(Br)cn1)C1CCCCC1 | – | 1200 nM | 1100 nM | 400 nM | 10000 nM | 200 nM | 1 nM |
| C[C@H](NC(=S)Nc1nccs1)C1CCCCC1 | > 1000 nM | > 100000 nM | > 100000 nM | – | – | – | – |
| C[C@H](/N=C(\S)Nc1ccc(Cl)cn1)C1CCCCC1 | > 1000 nM | > 100000 nM | > 100000 nM | – | – | – | – |
| Cc1ccnc2c1NC(=O)c1cccnc1N2C1CC1 [NEVIRAPINE] | 34 nM | – | – | > 100000 nM | > 100000 nM | 5000 nM | – |
| C[C@@H](/N=C(\S)Nc1ccc(Cl)cn1)C1CCCCC1 | 25 nM | 1400 nM | 1200 nM | 70 nM | 8200 nM | 60 nM | – |
| CC(C)Nc1cccnc1N1CCN(C(=O)c2cc3cc(NS(C)(=O)=O)ccc3[nH]2)CC1 [DELAVIRDINE] | 9 nM | – | – | 50000 nM | > 100000 nM | 400 nM | – |
| C[C@H](/N=C(\S)Nc1ccc(Cl)cn1)c1ccccc1 | – | > 100000 nM | – | – | – | – | – |
| S=C(NCCc1ccccn1)Nc1ccc(Br)cn1 [TROVIRDINE] | 7 nM | – | 600 nM | 500 nM | > 100000 nM | 20 nM | – |
| C[C@@H](NC(=S)Nc1ccc(Cl)cn1)c1ccccc1 | 10 nM | 1200 nM | – | 200 nM | 10200 nM | 10 nM | – |
| C[C@H](NC(=S)Nc1ccccn1)C1CCCCC1 | > 1000 nM | > 100000 nM | > 100000 nM | – | – | – | – |
| C[C@@H](/N=C(\S)Nc1nccs1)C1CCCCC1 | 1 nM | 13000 nM | 12000 nM | 900 nM | 5800 nM | 5600 nM | – |
